# Tested on: R. pulicis
# Type: cell-based, Rickettsia pulicis
smiles,measurement,value
CO[C@H]1/C=C/O[C@@]2(C)Oc3c(C)c(O)c4c(O)c(c(/C=N/N5CCN(C)CC5)c(O)c4c3C2=O)NC(=O)/C(C)=C\C=C\[C@H](C)[C@H](O)[C@@H](C)[C@@H](O)[C@@H](C)[C@H](OC(C)=O)[C@@H]1C [Rifampin],inhibitory at single concentration tested,inhibitory

# From US20030003508A1 (priority 1999, published 2003)
